Measured values taken from paper PMC8139662 (Journal of Virology, 2021).
Several values for one entry are separate records, joined by “and”; a condition that tells them apart may be missing. Identical values can stand only once. Like-named read-outs stand apart in the source and are kept apart here.

Legend:
SARS-CoV-2 USA-WA1/2020 [1] = assay type: cell-based; conditions: for protection from virus-induced CPE: at 1 μM (PF-00835231: 1 μM and above); for protection from ring syncytium formation (CPE): at 0.33 μM and above; for protection from ring syncytium formation (CPE) / overall number of infected foci: microscopy; for overall number of infected foci: A549+ACE2, drug treatment
[2] = system: SARS-CoV-2 USA/NYU-VC-003/2020; assay type: cell-based
SARS-CoV-2 USA-WA1/2020 [3] = assay: Time-of-drug-addition assay in A549+ACE2 cells; assay type: cell-based; conditions: A549+ACE2, USA-WA1/2020
SARS-CoV-2 [4] = conditions: Vero E6 cells; cited from earlier work
SARS-CoV-2 USA-WA1/2020 [5] = assay type: cell-based; conditions: for SARS-CoV-2 infectious titers in apical washes: 10 μM basolateral, washes every 12 h up to 72 h; for number of infected (N-expressing) cells: 10 μM, 72-h endpoint
[6] = system: polarized human airway epithelial cultures (HAEC)
BCi-NS1.1 cells = conditions: 48 h, dose range up to 10 μM
COVID-19 patients = conditions: patients with more advanced infection, i.v.; cited from earlier work
in vitro = conditions: human
[7] = system: panel of diverse coronavirus 3CL^pro; conditions: alpha-, beta- and gammacoronavirus 3CLpro panel; cited from earlier work
SARS-CoV-2 [8] = conditions: PF-00835231 with remdesivir, in vitro; cited from earlier work
[9] = PF-00835231 versus GC-376 set (Table 2)

| Structure (SMILES) | protection from virus-induced CPE (SARS-CoV-2 USA-WA1/2020 [1]) | EC90 [2] | EC50 [2, 9] | minimum treatment dose that led to undetectable infection levels (SARS-CoV-2 USA-WA1/2020 [3]) | CC50 (A549^+ACE2 cells) | EC50 (SARS-CoV-2 [4]) | protection from ring syncytium formation (CPE) (SARS-CoV-2 USA-WA1/2020 [1]; A549+ACE2) | overall number of infected foci (SARS-CoV-2 USA-WA1/2020 [1]) | SARS-CoV-2 infectious titers in apical washes (SARS-CoV-2 USA-WA1/2020 [5]) | number of infected (N-expressing) cells (SARS-CoV-2 USA-WA1/2020 [5]) | effect on morphology of HAEC (histology) [6] | ATP levels (cell viability) (BCi-NS1.1 cells) | further results |
| --- | --- | --- | --- | --- | --- | --- | --- | --- | --- | --- | --- | --- | --- |
| CC(C)C[C@H](NC(=O)OCc1ccccc1)C(=O)N[C@@H](CC1CCNC1=O)C(O)S(=O)(=O)[O-].[Na+] (stereo partly drawn) [GC-376, reference compound] | unable to protect cells from virus-induced CPE | 2730 nM | 529 nM | 10 µM | > 10000 nM | 900 nM | – | – | – | – | – | – | EC90 (SARS-CoV-2 USA-WA1/2020 [1]): 4550 nM and 5250 nM; number and size of viral foci (SARS-CoV-2 USA-WA1/2020 [1]; 1 μM, A549+ACE2): decreased the number and size of viral foci |
| CCC(CC)COC(=O)[C@H](C)N[P@](=O)(OC[C@H]1O[C@@](C#N)(c2ccc3c(N)ncnn23)[C@H](O)[C@@H]1O)Oc1ccccc1 [remdesivir, reference compound] | – | – | – | – | – | – | fully protected | decreased the overall number of infected foci | viral titers below the limit of detection at most time points | the number of infected cells was significantly reduced | Neither drug caused measurable adverse effects on the morphology of the cultures | caused a reduction in ATP levels compared to carrier control, albeit not statistically significantly | effect on transepithelial resistance (TEER) over time [6]: negatively impacted TEER over time, albeit not statistically significantly compared to untreated cultures; patients with benefit (COVID-19 patients): 68%; CC50 (in vitro): > 10000 nM |
| COc1cccc2[nH]c(C(=O)N[C@@H](CC(C)C)C(=O)N[C@@H](C[C@@H]3CCNC3=O)C(=O)CO)cc12 [PF-00835231] | fully protected | 591 nM and 1170 nM | 326 nM | 3 µM | > 10000 nM | 270 nM | fully protected | decreased the overall number of infected foci | viral titers below the limit of detection at most time points | the number of infected cells was significantly reduced | Neither drug caused measurable adverse effects on the morphology of the cultures | did not detect a decrease in ATP | change in antiviral efficacy when blocking MDR1 (SARS-CoV-2 USA-WA1/2020 [1]): no changes in antiviral efficacy when blocking MDR1 activity; EC50 ([2]; PF-00835231 versus remdesivir set (Table 1), n = 3): 184 nM; change in antiviral efficacy when blocking MDR1 (SARS-CoV-2 USA-WA1/2020 [5]; […], HAEC, 0.025 or 0.5 μM PF-00835231): no changes in antiviral efficacy when blocking MDR1 activity; antiviral activity against SARS-CoV-2 (SARS-CoV-2 [4]): high micromolar levels; effect of inhibiting MDR1 function on antiviral efficacy (SARS-CoV-2 [4]): significantly increased antiviral efficacy; inhibition of 3CLpro [7]: potent inhibition; combination effect with remdesivir in inhibiting SARS-CoV-2 (SARS-CoV-2 [8]): significant synergistic effects |
